Test results reported in US7973219B2, “Method for producing transgenic plants resistant to weed control compounds which disrupt the porphyrin pathways of plants” (Sumitomo Chemical Company, Limited, priority 1998, dated 2011).

Tests used:
[1] = tested on: E. coli BT3/pACYCSP+pCR2.1 strain; assay: Growth of E. coli BT3/pACYCSP+pCR2.1 (vector control) with herbicidal compound; format: cell-based, Escherichia coli; conditions: 18 hours culture, Table 6
From the text: (§1) According to the description of Gibson, L. C. D. et al., Proc. Natl. Acad. Sci. USA, 92; p 1941 (1995), the DNA fragment containing bchH gene prepared in Example 1 was digested with the restriction enzymes NdeI and BglII. The resultant DNA fragment was inserted between NdeI restriction site and BamHI restriction site of expression vector pET11a (manufactured by Stratagene) to obtain plasmid pETBCH (FIG. 1). This plasmid pETBCH was introduced into E. coli BL21(DE3) strain competent cells (manufactured by Stratagene) according to the manual attached to the competent cells to obtain E. coli BL21(DE3)/pETBCH strain. The strain was inoculated into 1.5 ml LB liquid culture medium (1% tryptone, 0.5% yeast extract, 0.5% NaCl) containing 100 μg/ml ampicillin in a tube (14×10 mm), and the tube was covered with aluminum foil (hereinafter referred to as dark conditions), cultured with shaking at 37° C. under light of fluorescent lamp (about 8000 lux). When the absorbance at 600 nm of the liquid culture medium became about 0.6, isopropyl β-D-thiogalactopyranoside (IPTG) was added to the liquid culture medium so that the final concentration was 0.4 mM, and the culture was continued for about additional 20 hours. […] In contrast to this, when E. coli BL21(DE3)/pETBCH strain was cultured according to the same manner (with IPTG) except that the tube was not covered with aluminum foil (hereinafter referred to as light conditions), E. coli grew and turned red as above.
The plasmid pTCHLH1 and pCR2.1 prepared in Example 7 were introduced into E. coli BT3/pACYCSP strain prepared in Example 3, respectively according to the method described in Hanahan, D. J., Mol. Biol., 166; p 557 (1983). E. coli BT3/pACYCSP+pTCHLH1 strain bearing plasmids pACYCSP and pTCHLH1, and E. coli BT3/pACYCSP+pCR2.1 strain bearing plasmids pACYCSP and pCR2.1 were obtained by culturing the above strains in YPT medium containing 100 μg/ml ampicillin, 15 μg/ml chloramphenicol and 50 μg/ml kanamycin, respectively.
(§2) These E. coli strains were inoculated into YPT medium containing 10 or 1 ppm of the PPO inhibitory-type herbicidal compound represented by Structure 8, 100 μg/ml ampicillin, 15 μg/ml chloramphenicol, 50 μg/ml kanamycin, 10 μg/ml hemin and 50 μg/ml aminolevulinic acid, cultured under dark conditions or light conditions according to the same manner as in Example 2. Then, 18 hours after initiation of culture, the absorbance of the liquid culture medium was measured at 600 nm. By taking the absorbance of the medium without the herbicidal compound as 1, the relative value of the absorbance of the medium containing the herbicidal compound was calculated.

[2] = tested on: E. coli BT3/pACYCSP+pHEMF strain; assay: Growth of E. coli BT3/pACYCSP+pHEMF (E. coli hemF) with herbicidal compound; format: cell-based, Escherichia coli; conditions: 18 hours culture, Table 14
From the text: as §1
The DNA fragment containing hemF gene amplified by the method described in Example 26 was digested with restriction enzymes FbaI and PstI, and inserted between BamHI restriction site and PstI restriction site of commercially available plasmid […] (manufactured by Takara Shuzo Co., Ltd.) to construct plasmid pHEMF (FIG. 16).
The plasmid pHEMF and pTV118N were introduced into E. coli BT3/pACYCSP strain prepared in Example 3 respectively according to the method described in Hanahan, D. J., Mol. Biol., 166; p 557 (1983). […]
as §2, with “μg/ml chloramphenicol, 10 μg/ml kanamycin,” for “μg/ml chloramphenicol, 50 μg/ml kanamycin,”, “absorbance of liquid culture” for “absorbance of the liquid culture”, “compound as I, the relative” for “compound as 1, the relative”

[3] = tested on: tobacco into which the gene encoding the variant Chlamydomonas reinhardtii PPO was introduced; assay: Leaf piece chlorophyll test, tobacco with gene encoding variant Chlamydomonas reinhardtii PPO; format: in vivo; conditions: Table 10; for Resistant level to test compound: same manner as Example 6 (0.3 ppm), treated vs untreated leaf pieces; for Total chlorophyll content treated-leaf: same manner as Example 6 (0.3 ppm, 7 days in light)
From the text: The tobacco leaves into which bchH gene was introduced and control recombinant tobacco leaves obtained in Example 5 were collected and each leaf was divided into the right and left equivalent pieces along the main vein, respectively. To one piece was applied an aqueous solution containing 0.3 ppm PPO inhibitory-type herbicidal compound of Structure 8, while, to the other piece was not applied the compound. These leaf pieces were placed on MS medium containing 0.8% agar and allowed to stand at room temperature for 7 days in light place. Then, each leaf piece was ground with pestle and mortar in 5 ml of 80% aqueous acetone solution to extract chlorophyll. The extract liquid was diluted with 80% aqueous acetone solution and the absorbance was measured at 750 nm, 663 nm and 645 nm to calculate total chlorophyll content according to the method described by Macknney G., J. Biol. Chem. (1941) 140, p 315. The results obtained from 4 clones of tobacco into which bchH gene was introduced (BCH1 to 4) and control recombinant tobacco is shown in Table 4. In the table, the resistant level to the herbicidal compound was represented by percentages of the total chlorophyll content of leaf pieces treated with herbicidal compound to that of untreated leaf pieces.
Leaf pieces of tobacco cultured sterilely were infected with the Agrobacterium strain and, according to the same manner as in Example 5, tobacco into which the gene encoding the variant Chlamydomonas reinhardtii PPO was introduced was obtained.
The level of resistance to the PPO-inhibitory type herbicidal compound represented by Structure 8 was confirmed quantitatively by testing tobacco into which the gene encoding the variant Chlamydomonas reinhardtii PPO prepared in Example 18 was introduced according to the same manner as in Example 6. The results obtained from 4 clones (CRP 1-4) of tobacco into which the gene encoding the variant Chlamydomonas reinhardtii PPO was introduced and control recombinant tobacco is shown in Table 10. In the table, the resistant levels to the herbicidal compound are represented by percentages of the total chlorophyll content of leaf pieces treated with the herbicidal compound to that of untreated leaf pieces.

C#CCOc1cc(N2C(=O)C3=C(CCCC3)C2=O)c(F)cc1Cl [Structure 8]
Relative absorbance ([1]; in the dark, 1 ppm): 1.0
Relative absorbance ([1]; in the dark, 10 ppm): 1.0
Relative absorbance ([1]; in the light, 1 ppm): 0.08
Relative absorbance ([1]; in the light, 10 ppm): 0.03
Relative absorbance ([2]; in the dark, 1 ppm): 0.95
Relative absorbance ([2]; in the dark, 10 ppm): 0.94
Relative absorbance ([2]; in the light, 1 ppm): 1.0
Relative absorbance ([2]; in the light, 10 ppm): 0.48
Resistant level to test compound ([3]; clone CRP-1): 121%
Total chlorophyll content treated-leaf ([3]; clone CRP-1): 1.54 mg/g-fresh weight
Resistant level to test compound ([3]; clone CRP-2): 111%
Total chlorophyll content treated-leaf ([3]; clone CRP-2): 1.67 mg/g-fresh weight
Resistant level to test compound ([3]; clone CRP-3): 101%
Total chlorophyll content treated-leaf ([3]; clone CRP-3): 1.11 mg/g-fresh weight
Resistant level to test compound ([3]; clone CRP-4): 99.4%
